One data set has as its system Zika virus (ZIKV). In kind it is cell-based. The note with it: DC-SIGN U937 cells, no antibodies present.
Data set [1] concerns H3N2 influenza virus (IAV). In kind it is cell-based. The note with it: DC-SIGN U937 cells, no antibodies present.
Data set [2] relates to H1N1 influenza virus (IAV). In kind it is cell-based. The note with it: DC-SIGN U937 cells, no antibodies present.
For data set [3], the system named is dengue 2. In kind it is cell-based, dengue virus. The note with it: FcγRIIa+FcγRIIIa− U937 cells treated with PMA/ionomycin.
For data set [4], the system named is dengue 2. Type of data set: cell-based, dengue virus. The note with it: for Inhibition of dengue 2 infection (ADE): FcγRIIa+FcγRIIIa+ monocytes, pre-incubation with inhibitor.
Data set [5] concerns FcγRIIa^+FcγRIIIa^+ monocytes. The note with it: at concentrations tested.

Read-outs that look alike come from different tables or passages of the source.

Consider 11R-VIVIT, for which the Inhibition of infection entry (with Zika virus (ZIKV); in data set [1]; in data set [2]) was “did not inhibit” each time. Further, in the data set on dengue 2 [3], the “Inhibition of enhanced infection after PMA/ionomycin treatment” value is on record as “could be inhibited”. In addition, the “Inhibition of dengue infection” value in the data set with dengue 2 [4] (5 μM peptide, all MOIs tested) is given as above 70%. Also, the “Inhibition of dengue 2 infection (ADE)” value in the data set on dengue 2 [4] is reported as “inhibited dengue 2 infection in a concentration-dependent manner”. In addition, the “Inhibition of dengue 2 replication, time of treatment” value in the data set with dengue 2 [4] (treatment of cells up to 2 hours following infection) is listed as “inhibited dengue 2 replication”. In data set [5], the Cell viability entry is listed as “unaffected”.

For `Cc1cccc(Nc2nc(N[C@@H]3CCCC[C@@H]3N)ncc2C(N)=O)c1` [PRT318], the “Inhibition of dengue 2 infection (ADE)” value with dengue 2 [4] is “inhibited in FcγRIIa^+FcγRIIIa^+ monocytes in a concentration-dependent manner”; in the data set with dengue 2 [4] (listed as PRT), “inhibited dengue 2 infection in FcγRIIa+FcγRIIIa+ monocytes in a concentration-dependent manner”.

These data come from US11826414B2, “Measurement of afucosylated IgG Fc glycans and related vaccination methods” (priority 2017, dated 2023).
